Reference: patent publication US20100003346A1, “COMBINATION METHODS OF TREATING CANCER” (priority 2006, published 2010)
Read-outs that look alike come from different tables or passages of the source.

Columns and labels:
[1] = tested on: MCF7 human breast adenocarcinoma; assay: Cytotoxicity assay (MTS, CellTiter 96) in MCF7 cells; assay type: cell-based
Excerpt: (§1) CT26 is a murine colon carcinoma. DA-3 is a murine mammary adenocarcinoma. TRAMP C1 is a murine prostate adenocarcinoma. MCF7 is a human breast adenocarcinoma. M IA PaCa-2 is a human pancreatic carcinoma. D122 is a murine lung carcinoma. BCL1 is a murine B cell leukemia. All cell lines were purchased from ATCC (Rockville, Md., USA), except for DA3 and D122 which were kindly provided by Prof. Y. Keisari (Tel-Aviv University, Israel).
(§2) MCF7, MIA PaCa-2 and BCL1 cells were maintained in RPMI-1640 medium (Biological Industries, Israel) supplemented with 10% FCS, 2 mM L-glutamine, 100 U ml^−1 penicillin and 100 μg ml^−1 streptomycin.
(§3) All cells (except for BCL1) were plated into 96-well microtiter plates (Corning) at a density of 2*10^3 cells per well and were allowed to adhere prior to treatment. BCL1 cells were seeded at a density of 20*10^4 cells per well. The cells were exposed to MJ, cytotoxic drugs, 2DG or their combinations at different concentrations for 24 hours. Cytotoxic drugs and 2DG were added 1 h prior to MJ addition.
(§4) Inhibition of cell proliferation was determined by the CellTiter 96 Aqueous Non-Radioactive Cell Proliferation Assay (Promega, Madison, Wis., USA). Upon completion of a given experiment, 20 μl of a mixture (20:1) of MTS (a tetrazolium compound, at a final concentration of 333 μg/ml)+phenazine methosulfate (at a final concentration of 25 μM) were added to each well of the 96-well plate for 1 h at 37° C. This allowed for the development of the reaction in which dehydrogenases reduce the MTS in metabolically active cells. […] Soluble MTS formazan product at wavelength 490 nm was measured with the CERES 900 HDi ELISA reader (Bio-Tek Instruments, Highland Park, Vt., USA). Optical density is directly proportional to the number of living cells in culture. Cytotoxicity (%) was calculated in the following way: [(absorbance of control cells−absorbance of drug-treated cells)/absorbance of control cells]×100.

[2] = tested on: CT26 murine colon carcinoma; assay: Cytotoxicity assay (MTS, CellTiter 96) in CT26 cells; assay type: cell-based
Procedure: as §1
The cells were maintained in a humidified atmosphere, at 37° C. with 5% CO2. CT26 and DA-3 cells were maintained in Dulbecco's modified Eagle's medium (Biological Industries, Beit-Haemek, Israel), supplemented with 10% FCS, 2 mM L-glutamine, 100 U ml^−1 penicillin, 100 μg ml^−1 streptomycin, 1 mM sodium pyruvate and 1:100 dilution of nonessential amino acids (all purchased from Biological Industries, Israel). […]
Inhibition of cell proliferation was determined by the CellTiter 96 Aqueous Non-Radioactive Cell Proliferation Assay (Promega, Madison, Wis., USA). […] Soluble MTS formazan product at wavelength 490 nm was measured with the CERES 900 HDi ELISA reader (Bio-Tek Instruments, Highland Park, Vt., USA). […] Cytotoxicity (%) was calculated in the following way: [(absorbance of control cells−absorbance of drug-treated cells)/absorbance of control cells]×100.

[3] = tested on: D122 murine lung carcinoma; assay: Cytotoxicity assay (MTS, CellTiter 96) in D122 cells; conditions: for IC50: Mus musculus
Procedure: as §1, §3, §4

[4] = tested on: DA-3 murine mammary adenocarcinoma; assay: Cytotoxicity assay (MTS, CellTiter 96) in DA-3 cells; conditions: for IC50: Mus musculus
Procedure: as §1
The cells were maintained in a humidified atmosphere, at 37° C. with 5% CO2. CT26 and DA-3 cells were maintained in Dulbecco's modified Eagle's medium (Biological Industries, Beit-Haemek, Israel), supplemented with 10% FCS, 2 mM L-glutamine, 100 U ml^−1 penicillin, 100 μg ml^−1 streptomycin, 1 mM sodium pyruvate and 1:100 dilution of nonessential amino acids (all purchased from Biological Industries, Israel).
as §3, §4

[5] = tested on: BCL1 murine B cell leukemia; assay: Cytotoxicity assay (MTS, CellTiter 96) in freshly extracted BCL1 cells; conditions: for Interaction of MJ with drug (cytotoxicity vs expected additivity): BCL1; for Cooperative effect of combination of MJ and chemotherapeutic drug: BCL1 cells, drug combined with fixed concentration of MJ (0.1 mM), cooperative = pV<0.05 vs expected additivity; for IC50: Mus musculus
Excerpt: as §1, §2
BCL1 cells, which are unable to grow continuously in culture, were maintained in BALB/c mice. Blood was taken from the tail vein of BCL1-bearing mice on day 23-28 post inoculation, and depleted of red blood cells (RBC) using RBC lysis buffer (Sigma-Aldrich). The purified leukemic cells were used for in vitro and in vivo experiments.
as §3, §4

[6] = tested on: BCL1 leukemia; assay: Survival of BCL1 leukemia-bearing mice; assay type: in vivo, BALB/c mice; conditions: MJ 60 mg/kg i.v. or adriamycin 4 mg/kg i.p. alone
Procedure: Balb/c male mice (7-8 weeks old) were obtained from the breeding colony of Tel-Aviv University, Israel. Animal care and experimentation were carried out in accordance with Tel-Aviv University guidelines and approved by the institutional animal use and care committee. Mice were kept in cages under standard food and housing conditions during the experiments.
(§5) 2×10^4 BCL1 cells, freshly extracted from BCL1 leukemia bearing BALB/c mice, were inoculated intraperitoneally (i.p.) into mice in 100 μl PBS to produce tumor growth. Methyl jasmonate at 60 mg/kg was administered to animals 5 times a week, daily, for 4 weeks, starting one day after cell inoculation. […] MJ was dissolved in a lipid formulation, Lipofundin (B. Braun Melsungen, Melsungen, Germany). The adriamycin was given to mice twice, on days 7 and 14, at 4 mg/kg, i.p. Control mice were treated with the vehicle alone. The survival of mice was monitored daily.
Statistical significance in in vitro experiments was assessed using the two-tailed Student's t-test. P<0.05 was considered statistically significant. The survival curves (Kaplan-Meier test) and statistical analysis (Mantel-Cox test) were carried out using Statistical software.
Since adriamycin is used for treatment of leukemia, it was chosen for an experiment assessing a combination with MJ in vivo. […]

[7] = tested on: MIA PaCa-2 human pancreatic carcinoma; assay: Cytotoxicity assay (MTS, CellTiter 96) in MIA PaCa-2 cells; conditions: for IC50: Homo sapiens; for Cooperative effect of combination of MJ and chemotherapeutic drug: MIA PaCA-2 cells, drug combined with fixed concentration of MJ, cooperative = pV<0.05 vs expected additivity
Excerpt: as §1, §2, §3, §4

[8] = tested on: TRAMP C1 murine prostate adenocarcinoma; assay: Cytotoxicity assay (MTS, CellTiter 96) in TRAMP C1 cells; assay type: cell-based; conditions: for Cooperative effect of combination of MJ and chemotherapeutic drug / IC50: TRAMP C1 cells; for Cooperative effect of combination of MJ and chemotherapeutic drug: drug combined with fixed concentration of MJ, cooperative = pV<0.05 vs expected additivity; for IC50: Mus musculus
Procedure: as §1
TRAMP C1 cells were grown in Dulbecco's modified Eagle's medium supplemented with 10% FCS, 2 mM L-glutamine, 100 U ml^−1 penicillin, 100 μg ml^−1 streptomycin, 1 mM sodium pyruvate, 1:100 dilution of nonessential amino acids, 5 μg/ml bovine insulin and 10 nM dehydroisoandrosterone.
as §3, §4

[9] = mouse, in vivo
Procedure: as §5

[10] = drug at other concentrations + 0.1 mM MJ

SMILES: O=CC[C@@H](O)[C@H](O)[C@H](O)CO [2DG, 2-Deoxy-D-glucose]
- Effect of 2DG on cytotoxicity of MJ ([1]; MCF7, 2DG 0.5 mM, other MJ concentrations): additive
- Effect of 2DG on cytotoxicity of MJ ([2]; CT26, 2DG 0.5 mM, each MJ concentration, pV<0.05): significantly enhanced
- Effect of 2DG on cytotoxicity of MJ ([3]; D122, 2DG 0.5 mM, each MJ concentration, pV<0.05): significantly enhanced
- Effect of 2DG on cytotoxicity of MJ ([4]; DA-3, 2DG 0.5 mM with MJ): No cooperative effect

SMILES: COc1cccc2c1C(=O)c1c(O)c3c(c(O)c1C2=O)C[C@@](O)(C(=O)CO)C[C@@H]3O[C@H]1C[C@H](N)[C@H](O)[C@H](C)O1 [Adriamycin]
- Interaction of MJ with drug (cytotoxicity vs expected additivity) ([5]; adriamycin 10 and 25 ng/ml + 0.1 mM MJ): cooperation
- Interaction of MJ with drug (cytotoxicity vs expected additivity) [5, 10]: additive effect
- Cooperative effect of combination of MJ and chemotherapeutic drug [5]: +
- Survival of BCL1 leukemia-bearing mice, single agent [6]: did not induce increased survival

SMILES: O=NN(CCCl)C(=O)NCCCl [BCNU, 1,3-bis{2-Chloroethyl}-1-nitroso-urea]
- Interaction of MJ with drug (cytotoxicity vs expected additivity) ([5]; BCNU 2.5 and 5 μg/ml + 0.1 mM MJ, pV<0.05): cooperation
- Interaction of MJ with drug (cytotoxicity vs expected additivity) [5, 10]: additive effect
- Cooperative effect of combination of MJ and chemotherapeutic drug [5]: +
- IC50 ([7]; MIA PaCa-2, read-out: IC50 of BCNU by itself): > 25 µg/mL
- IC50 ([7]; MIA PaCa-2, read-out: IC50 of BCNU in the combination with MJ): < 1 µg/mL
- Cooperative effect of combination of MJ and chemotherapeutic drug [7]: +
- Interaction of MJ with drug (cytotoxicity vs expected additivity) ([7]; MIA PaCa-2, BCNU at all concentrations tested (1-25 μg/ml) + 1 mM MJ): strong cooperative effects

SMILES: N.N.[Cl][Pt][Cl] [Cisplatin, cis Diammineplatinum (II) dichloride]
- Cooperative effect of combination of MJ and chemotherapeutic drug [7]: +
- Cooperative effect of combination of MJ and chemotherapeutic drug [8]: +

SMILES: CC/C=C\CC1C(=O)CCC1CC(=O)OC (stereo not shown) [MJ, methyl 3-oxo-2-(2-pentenyl)cyclopentaneacetic acid]
- IC50 ([5]; BCL1, 24 h, read-out: IC50 of MJ): 560 ± 90 µM
- IC50 ([5]; BCL1, read-out: IC50 of MJ): 560 µM
- IC50 ([1]; Homo sapiens, MCF7 cells, 24 h exposure): 1490 ± 60 µM
- IC50 ([7]; MIA PaCa-2, 24 h, read-out: IC50 of MJ): 1460 ± 130 µM
- IC50 ([2]; Mus musculus, CT26 cells, 24 h exposure): 2590 ± 120 µM
- IC50 ([8]; 24 h exposure, read-out: IC50 of MJ): 2940 ± 130 µM
- IC50 ([3]; 24 h, read-out: IC50 of MJ): 1220 ± 60 µM
- Tolerability of MJ dose [9]: well tolerated
- IC50 ([4]; DA-3, 24 h, read-out: IC50 of MJ): 1910 ± 80 µM

SMILES: CC(=O)O[C@H]1C(=O)[C@@]2(C)[C@H]([C@H](OC(=O)c3ccccc3)[C@]3(O)C[C@H](OC(=O)[C@H](O)[C@@H](NC(=O)c4ccccc4)c4ccccc4)C(C)=C1C3(C)C)[C@]1(OC(C)=O)CO[C@@H]1C[C@@H]2O [Taxol]
- Interaction of MJ with drug (cytotoxicity vs expected additivity) ([5]; drug + 0.1 mM MJ): No cooperative effect
- Interaction of MJ with drug (cytotoxicity vs expected additivity) ([1]; MCF7, taxol 2.5 μg/ml + 1 mM MJ): enhances the cytotoxic capability
- Interaction of MJ with drug (cytotoxicity vs expected additivity) ([1]; MCF7, taxol at other concentrations + 1 mM MJ): additive
- Cooperative effect of combination of MJ and chemotherapeutic drug ([1]; MCF7 cells, drug combined with fixed concentration of MJ, cooperative = pV<0.05 vs expected additivity): +
- IC50 ([8]; drug alone, read-out: IC 50 of taxol): 38 µg/mL
- IC50 ([8]; with 1 mM MJ, read-out: IC 50 of taxol by combined treatment with MJ): 2 µg/mL
- Combined effect of taxol with MJ vs expected additivity ([8]; TRAMP C1, taxol at all concentrations tested (1-50 μg/ml) + 1 mM MJ): significantly higher than the expected additivity
- Cooperative effect of combination of MJ and chemotherapeutic drug [8]: +
- Cooperative effect of combination of MJ and chemotherapeutic drug ([3]; D122 cells, drug combined with fixed concentration of MJ, cooperative = pV<0.05 vs expected additivity): +
- IC50 ([3]; read-out: IC50 of taxol alone): 8.2 µg/mL
- IC50 ([3]; read-out: IC50 of taxol in the presence of MJ): < 1 µg/mL
- Cooperative effect of combination of MJ and chemotherapeutic drug ([4]; DA-3 cells, drug combined with fixed concentration of MJ, cooperative = pV<0.05 vs expected additivity): +
- IC50 ([4]; DA-3, read-out: IC50 of taxol alone): 9 µg/mL
- IC50 ([4]; DA-3, read-out: IC50 of taxol in combination with MJ): 2.5 µg/mL
